# From ChEMBL document CHEMBL3124756, “Hepatitis C virus NS5A replication complex inhibitors. Part 6: Discovery of a novel and highly potent biarylimidazole chemotype with inhibitory activity toward genotypes 1a and 1b replicons” (J Med Chem, 2014)
# pEC50: −log10 of the molar value.
# Test system: not listed separately
# Experiment: Cytotoxicity against human HuH7 cells infected with HCV genotype 1b after 72 hrs by Alamar blue assay
# Assay type: cell-based, Huh-7
# Conditions: not given
row,SMILES,CC50 at 72 h
1,O=C(Cc1ccccc1)N1CCC[C@H]1c1nc2cc(C#Cc3ccc4nc([C@@H]5CCCN5C(=O)Cc5ccccc5)[nH]c4c3)ccc2[nH]1,> 10000 nM
2,CC(C)(C)OC(=O)N1CCC[C@H]1c1ncc(-c2ccc(-c3ccc(-c4cnc([C@@H]5CCCN5C(=O)OC(C)(C)C)[nH]4)cc3)cc2)[nH]1,9630 nM
3,COC(=O)N[C@@H](C(=O)N1CCC[C@H]1c1nc2cc(C#Cc3ccc4[nH]c([C@@H]5CCCN5C(=O)[C@H](NC(=O)OC)c5ccccc5)nc4c3)ccc2[nH]1)c1ccccc1,> 10000 nM
4,O=C(Nc1ccc(C#Cc2ccc(NC(=O)[C@@H]3CCCN3C(=O)Cc3ccccc3)cc2)cc1)[C@@H]1CCCN1C(=O)Cc1ccccc1,> 10000 nM
5,COC(=O)N[C@@H](C(=O)N1CCC[C@H]1c1ncc(-c2ccc(-c3ccc(-c4cnc([C@@H]5CCCN5C(=O)[C@@H](c5ccccc5)N(C)C)[nH]4)cc3)cc2)[nH]1)c1ccccc1,> 9700 nM
6,CN(C)[C@H](C(=O)N1CCC[C@H]1c1ncc(-c2ccc(-c3ccc(-c4cnc([C@@H]5CCCN5C(=O)[C@H](c5ccccc5)N(C)C)[nH]4)cc3)cc2)[nH]1)c1ccccc1,3610 nM

# Test system: not listed separately
# Experiment: AUC (4 hrs) in rat at 5 mg/kg, po
# Assay type: ADME, organism-based
# Design: time < 4 hr, dose 5 mg/kg, route oral
# Conditions: plasma
row,SMILES,AUC at 4 h
1,COC(=O)N[C@@H](C(=O)N1CCC[C@H]1c1nc2cc(C#Cc3ccc4[nH]c([C@@H]5CCCN5C(=O)[C@H](NC(=O)OC)c5ccccc5)nc4c3)ccc2[nH]1)c1ccccc1,0.466 µM·h

# Test system: Hepatitis C virus
# Experiment: Antiviral activity against Hepatitis C virus genotype 1a infected in human HuH7 cells after 5 days by ELISA
# Assay type: functional, organism-based, Hepacivirus hominis
# Conditions: subtype 1a, Huh-7, 120 h
row,SMILES,pEC50
1,COC(=O)N[C@@H](C(=O)N1CCC[C@H]1c1nc2cc(C#Cc3ccc4[nH]c([C@@H]5CCCN5C(=O)[C@H](NC(=O)OC)c5ccccc5)nc4c3)ccc2[nH]1)c1ccccc1,6.97
2,COC(=O)N[C@@H](C(=O)N1CCC[C@H]1c1ncc(-c2ccc(-c3ccc(-c4cnc([C@@H]5CCCN5C(=O)[C@@H](c5ccccc5)N(C)C)[nH]4)cc3)cc2)[nH]1)c1ccccc1,10.31
3,CN(C)[C@H](C(=O)N1CCC[C@H]1c1ncc(-c2ccc(-c3ccc(-c4cnc([C@@H]5CCCN5C(=O)[C@H](c5ccccc5)N(C)C)[nH]4)cc3)cc2)[nH]1)c1ccccc1,6.15

# Test system: Hepatitis C virus
# Experiment: Antiviral activity against Hepatitis C virus genotype 1a infected in human HuH7 cells after 72 hrs by FRET assay
# Assay type: functional, organism-based, Hepacivirus hominis
# Conditions: subtype 1a, Huh-7, 72 h
row,SMILES,pEC50
1,O=C(Cc1ccccc1)N1CCC[C@H]1c1nc2cc(C#Cc3ccc4nc([C@@H]5CCCN5C(=O)Cc5ccccc5)[nH]c4c3)ccc2[nH]1,< 7.00
2,CC(C)(C)OC(=O)N1CCC[C@H]1c1ncc(-c2ccc(-c3ccc(-c4cnc([C@@H]5CCCN5C(=O)OC(C)(C)C)[nH]4)cc3)cc2)[nH]1,6.05
3,O=C(Nc1ccc(C#Cc2ccc(NC(=O)[C@@H]3CCCN3C(=O)Cc3ccccc3)cc2)cc1)[C@@H]1CCCN1C(=O)Cc1ccccc1,< 6.40

# Test system: not listed separately
# Experiment: Efflux ratio of permeability from basolateral to apical side over apical to basolateral side in human Caco2 cells
# Assay type: ADME, cell-based
# Conditions: Caco-2
row,SMILES,efflux ratio
1,COC(=O)N[C@@H](C(=O)N1CCC[C@H]1c1nc2cc(C#Cc3ccc4[nH]c([C@@H]5CCCN5C(=O)[C@H](NC(=O)OC)c5ccccc5)nc4c3)ccc2[nH]1)c1ccccc1,≥ 7.2

# Test system: not listed separately
# Experiment: Oral bioavailability in rat at 5 mg/kg
# Assay type: ADME, organism-based
# Conditions: in vivo
row,SMILES,bioavailability
1,COC(=O)N[C@@H](C(=O)N1CCC[C@H]1c1nc2cc(C#Cc3ccc4[nH]c([C@@H]5CCCN5C(=O)[C@H](NC(=O)OC)c5ccccc5)nc4c3)ccc2[nH]1)c1ccccc1,< 1%

# Test system: Hepatitis C virus
# Experiment: Antiviral activity against Hepatitis C virus genotype 1b expressing […] resistant-mutant infected in human HuH7 cells after 72 hrs by FRET assay
# Assay type: functional, organism-based, Hepacivirus hominis
# Conditions: Huh-7, 72 h
row,SMILES,pEC50
1,COC(=O)N[C@@H](C(=O)N1CCC[C@H]1c1nc2cc(C#Cc3ccc4[nH]c([C@@H]5CCCN5C(=O)[C@H](NC(=O)OC)c5ccccc5)nc4c3)ccc2[nH]1)c1ccccc1,< 5.48

# Test system: Bovine viral diarrhea virus 1
# Experiment: Antiviral activity against Bovine viral diarrhea virus infected in human HuH7 cells by luciferase reporter gene assay
# Assay type: functional, organism-based
# Conditions: Bovine viral diarrhea virus isolates and strains, Huh-7
row,SMILES,pEC50
1,O=C(Cc1ccccc1)N1CCC[C@H]1c1nc2cc(C#Cc3ccc4nc([C@@H]5CCCN5C(=O)Cc5ccccc5)[nH]c4c3)ccc2[nH]1,< 5.00
2,CC(C)(C)OC(=O)N1CCC[C@H]1c1ncc(-c2ccc(-c3ccc(-c4cnc([C@@H]5CCCN5C(=O)OC(C)(C)C)[nH]4)cc3)cc2)[nH]1,5.56
3,COC(=O)N[C@@H](C(=O)N1CCC[C@H]1c1nc2cc(C#Cc3ccc4[nH]c([C@@H]5CCCN5C(=O)[C@H](NC(=O)OC)c5ccccc5)nc4c3)ccc2[nH]1)c1ccccc1,< 5.00
4,O=C(Nc1ccc(C#Cc2ccc(NC(=O)[C@@H]3CCCN3C(=O)Cc3ccccc3)cc2)cc1)[C@@H]1CCCN1C(=O)Cc1ccccc1,< 5.00
5,COC(=O)N[C@@H](C(=O)N1CCC[C@H]1c1ncc(-c2ccc(-c3ccc(-c4cnc([C@@H]5CCCN5C(=O)[C@@H](c5ccccc5)N(C)C)[nH]4)cc3)cc2)[nH]1)c1ccccc1,5.46
6,CN(C)[C@H](C(=O)N1CCC[C@H]1c1ncc(-c2ccc(-c3ccc(-c4cnc([C@@H]5CCCN5C(=O)[C@H](c5ccccc5)N(C)C)[nH]4)cc3)cc2)[nH]1)c1ccccc1,5.90

# Test system: not listed separately
# Experiment: Clearance in rat at 2 mg/kg, iv
# Assay type: ADME, organism-based
# Design: dose 2 mg/kg, route intravenous
# Conditions: in vivo
row,SMILES,clearance
1,COC(=O)N[C@@H](C(=O)N1CCC[C@H]1c1nc2cc(C#Cc3ccc4[nH]c([C@@H]5CCCN5C(=O)[C@H](NC(=O)OC)c5ccccc5)nc4c3)ccc2[nH]1)c1ccccc1,1.1 mL/min/kg

# Test system: Hepatitis C virus
# Experiment: Antiviral activity against Hepatitis C virus genotype 1b infected in human HuH7 cells after 72 hrs by FRET assay
# Assay type: functional, organism-based, Hepacivirus hominis
# Conditions: Huh-7, 72 h
row,SMILES,pEC50
1,O=C(Cc1ccccc1)N1CCC[C@H]1c1nc2cc(C#Cc3ccc4nc([C@@H]5CCCN5C(=O)Cc5ccccc5)[nH]c4c3)ccc2[nH]1,> 8.34
2,CC(C)(C)OC(=O)N1CCC[C@H]1c1ncc(-c2ccc(-c3ccc(-c4cnc([C@@H]5CCCN5C(=O)OC(C)(C)C)[nH]4)cc3)cc2)[nH]1,6.99
3,COC(=O)N[C@@H](C(=O)N1CCC[C@H]1c1nc2cc(C#Cc3ccc4[nH]c([C@@H]5CCCN5C(=O)[C@H](NC(=O)OC)c5ccccc5)nc4c3)ccc2[nH]1)c1ccccc1,10.26
4,O=C(Nc1ccc(C#Cc2ccc(NC(=O)[C@@H]3CCCN3C(=O)Cc3ccccc3)cc2)cc1)[C@@H]1CCCN1C(=O)Cc1ccccc1,8.25
5,COC(=O)N[C@@H](C(=O)N1CCC[C@H]1c1ncc(-c2ccc(-c3ccc(-c4cnc([C@@H]5CCCN5C(=O)[C@@H](c5ccccc5)N(C)C)[nH]4)cc3)cc2)[nH]1)c1ccccc1,10.92
6,CN(C)[C@H](C(=O)N1CCC[C@H]1c1ncc(-c2ccc(-c3ccc(-c4cnc([C@@H]5CCCN5C(=O)[C@H](c5ccccc5)N(C)C)[nH]4)cc3)cc2)[nH]1)c1ccccc1,8.27

# Test system: not listed separately
# Experiment: AUC (24 hrs) in rat at 5 mg/kg, po
# Assay type: ADME, organism-based
# Design: time < 24 hr, dose 5 mg/kg, route oral
# Conditions: plasma
row,SMILES,AUC at 24 h
1,COC(=O)N[C@@H](C(=O)N1CCC[C@H]1c1nc2cc(C#Cc3ccc4[nH]c([C@@H]5CCCN5C(=O)[C@H](NC(=O)OC)c5ccccc5)nc4c3)ccc2[nH]1)c1ccccc1,0.539 µM·h
